The first test concerns the target full-length recombinant human FYN A (Homo sapiens (Human), UniProt P06241). Briefly: ADP-Glo Kinase Assay of FYN kinase inhibition. Format: biochemical. The following applies: primary screen, initial compounds. An excerpt: The chemical library was comprised of the SoftFocus ATP-competitive hinge binding compounds described by Harris, C. J., Hill, R. D., Sheppard, D. W., et al., The Design and Application of Target-Focused Compound Libraries. Combinatorial Chemistry and High Throughput Screening 14:521-31 (2011). The specific pharmacore chemistries included SFK52 comprising 6-[R2]-3-[R1]imidazo[1,2-b] pyridazine compounds, SFK33 comprising N-(3-[R2] imidazo [1,2-b] pyridazin-6-yl) [R1] amine compounds, SFK49 comprising N-(5-[R2] imidazo [2,1-b][1,3,4] thiadiazol-2-yl)[R1]-amine compounds, SFK 40 comprising 5-[R2]-3-[R1] pyridin-2-amine compounds, SFK43 comprising 6-[R2]-3-[R1]imidazo[1,2-a]pyrazine compounds, and SFK63. The chemical structures of the initial 600 potential kinase inhibitors are presented in Table 3, with those chosen for additional analysis presented in Table 4. Comparison of the compounds presented in Table 1 and those of Tables 2, 3 and 4, illustrate the novelty of the chemical structures claimed herein.
FYN kinase (10 micrograms) was from the FYN A Kinase Enzyme System (V3571, Promega UK Ltd.), a full-length recombinant human FYN A containing an N-terminal GST tag of about 85 kDa, expressed by bacullovirus in […] insect cells, supplied at a concentration of 0.1 microgram/microliter in 5×reaction buffer. The FYN substrate, a 12 amino acid peptide of the sequence […], containing a single tyrosine phosphorylation site, was custom synthesized (Peptide Synthetics, Peptide Protein Research, Fareham, UK) and supplied as a 4 mg/ml aqueous solution. All other reagents were obtained from Sigma (Sigma-Aldrich, Gillingham, Dorset, UK), with the exception of UltraPure ATP (V9102, Promega UK Ltd.) and the ATP-competitive broad spectrum protein kinase inhibitor staurosporine (569397, Merck Millipore, Watford, Hertfordshire, UK), or as otherwise indicated.
The assay procedure determines the IC50 of each potential FYN kinase inhibitor by measuring the enzyme catalyzed ATP-dependent phosphorylation of the FYN substrate peptide. The ADP-Glo™ Kinase Assay is specifically designed to quantify kinase activity by measuring the ADP produced in the reaction The reaction buffer comprises 40 mM Tris.HCl (pH 7.5), 20 mM MgCl2, 0.1 mg/ml BSA and 5 microM DTT. Individual compounds within the chemical library were dissolved in DMSO at known concentrations. Briefly, 2.5 microliters of reaction buffer containing 3 picograms of FYN kinase and serial dilutions of each potential FYN kinase inhibitor (9 3-fold dilutions of a 10 micromolar top sample) are placed into each well of a 384 well microtiter plate and incubated at room temperature for 30 minutes. An additional 2.5 microliters of reaction buffer containing 100 picograms of the FYN substrate and 12.5 picomoles of ATP are then added to each well and the reaction carried out for 90 minutes at room temperature. The reactions are terminated by addition of 5 microliters of the ADP-Glo™ Reagent component of the ADP-Glo™ Kinase Assay kit to each well. The ADP-Glo™ Reagent comprises an ATP-dependent adenylate cyclase, an inorganic pyrophosphatase and an excess of staurosporine. The adenylate cyclase converts the remaining ATP to cAMP and pyrophospahte, the pyrophosphatase converts the pyrophosphate to phosphate and the staurosporine inhibits the activity of the FYN kinase, the net effect is to remove all residual ATP while preserving the ADP produced by FYN kinase. The terminated reactions are incubated for 40 minutes at room temperature, prior to addition of the Kinase Detection Reagent component of the ADP-Glo™ Kinase Assay kit to each well. The Kinase Detection Reagent comprises pyruvate kinase, phosphoenol pyruvate (PEP), luciferin and luciferase. The pyruvate kinase converts PEP to pyruvate and in the process generates ATP from the residual ADP present in the terminated reaction. […]
A general note: In ADP-Glo the light output rises with the ADP produced.
full-length recombinant human FYN A, sequence (P06241 whole entry): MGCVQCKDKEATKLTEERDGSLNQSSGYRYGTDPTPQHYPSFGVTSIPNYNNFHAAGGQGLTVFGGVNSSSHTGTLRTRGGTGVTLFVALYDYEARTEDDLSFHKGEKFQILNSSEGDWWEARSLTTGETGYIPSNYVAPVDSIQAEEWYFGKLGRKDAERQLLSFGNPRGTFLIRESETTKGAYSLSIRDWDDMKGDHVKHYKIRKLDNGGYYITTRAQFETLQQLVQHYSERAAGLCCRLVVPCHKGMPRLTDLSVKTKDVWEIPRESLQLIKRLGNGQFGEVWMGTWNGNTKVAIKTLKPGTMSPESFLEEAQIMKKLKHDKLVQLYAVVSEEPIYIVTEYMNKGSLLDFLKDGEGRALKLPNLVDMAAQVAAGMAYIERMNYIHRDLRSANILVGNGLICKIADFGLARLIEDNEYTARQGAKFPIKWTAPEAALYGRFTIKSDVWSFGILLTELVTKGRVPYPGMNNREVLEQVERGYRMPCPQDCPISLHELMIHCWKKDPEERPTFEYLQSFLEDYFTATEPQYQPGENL
As for `Oc1cccc(-c2cnc3ccc(NCc4cccs4)nn23)c1` [229_0146_0284, 3-[6-(2-thienylmethyl-amino)imidazo[1,2-b]pyridazin-3-yl]phenol], the IC50 – broadly, the concentration that inhibits the measured activity by half – is 1700 nM.

Regarding `COc1ccc(-c2ccc3ncc(-c4ccc(CO)cc4)n3n2)cc1OC` [Compound 432, [4-[6-(3,4-dimethoxyphenyl)imidazo[1,2-b]pyridazin-3-yl]phenyl] methanol], the IC50 worked out at 3940 nM.

As to `COc1ccccc1-c1ccc2ncc(-c3ccc(CO)cc3)n2n1` [Compound 364], the IC50 amounted to 3900 nM.

As to `CC(=O)Nc1cccc(-c2cnc3ccc(-c4ccc(C(N)=O)cc4)nn23)c1` [Compound 282, 4-[3-(3-acetamidophenyl)imidazo[1,2-b]pyridazin-6-yl]benzamide], the IC50 amounted to 222 nM.

For `OCc1ccc(-c2ccc3ncc(-c4cccs4)n3n2)cc1` [Compound 378, [4-[3-(2-thienyl)imidazo [1,2-b]pyridazin-6-yl]phenyl] methanol], the IC50 is 2360 nM.

Take `CN(C)CCNC(=O)c1cccc(-c2ccc3ncc(-c4ccc5c(c4)OCO5)n3n2)c1` [Compound 433, 3-[3-(1,3-benzodioxol-5-yl)imidazo[1,2-b]pyridazin-6-yl]-N-(2-dimethylamino-ethyl)benzamide]: the IC50 is 393 nM.

For `NC1=C(c2nc3ccccc3[nH]2)C(=O)CN1c1ccc2c(c1)OCO2` [Compound 594, 5-amino-4-(1H-benzimidazol-2-yl)-1-(1,3-benzodioxol-5-yl)-2H-pyrrol-3-one], the IC50 was 4070 nM.

Turning to `COc1ccc(-c2cnc3ccc(NC4CCOCC4)nn23)cc1OC` [229_0242_0079, 3-(3,4-dimethoxy-phenyl)-N-tetra-hydropyran-4-yl-imidazo[1,2-b]pyridazin-6-amine], the IC50 was 547 nM.

Regarding `OCCCNc1ccc2ncc(-c3cccc(C(F)(F)F)c3)n2n1` [229_0248_0312, 3-[[3-[3-(trifluoro-methyl)phenyl]imidazo[1,2-b]pyridazin-6-yl]amino] propan-1-ol], the IC50 came out at 3410 nM.

With `COc1cc(-c2cnc(N)c(-c3cccc(N(C)C)c3)c2)ccc1O` [382_0135_0314, 4-[6-amino-5-[3-(dimethylamino)phenyl]-3-pyridyl]-2-methoxy-phenol], the IC50 was determined as 2110 nM.

For `Clc1cccc(-c2ccc3ncc(-c4ccncc4)n3n2)c1` [Compound 319, 6-(3-chlorophenyl)-3-(4-pyridyl)imidazo [1,2-b]pyridazine], the IC50 stood at 258 nM.

In the case of `COc1ccc(-c2cnc3ccc(-c4ccoc4)nn23)cc1OC` [Compound 334, 3-(3,4-dimethoxy-phenyl)-6-(3-furyl)imidazo [1,2-b]pyridazine], the IC50 was 983 nM.

For `COc1cc(-c2cnc3ccc(-c4cccc(C(N)=O)c4)nn23)ccc1O` [Compound 476, 3-[3-(4-hydroxy-3-methoxy-phenyl)imidazo [1,2-b]pyridazin-6-yl]benzamide], the IC50 turned out to be 223 nM.

Take `COc1cc(-c2cnc3ccc(-c4ccc(CO)cc4)nn23)ccc1O` [Compound 407, 4-[6-[4-(hydroxymethyl)phenyl]imidazo [1,2-b]pyridazin-3-yl]-2-methoxy-phenol]: the IC50 worked out at 125 nM.

Consider `c1ccc(-c2ccc3ncc(-c4cccnc4)n3n2)cc1` [Compound 352, 6-phenyl-3-(3-pyridyl)imidazo [1,2-b]pyridazine], for which the IC50 is 1940 nM.

Turning to `COc1cc(-c2cnc3ccc(-c4cc(OC)c(OC)c(OC)c4)nn23)ccc1O` [Compound 458, 2-methoxy-4-[6-(3,4,5-trimethoxyphenyl)imidazo[1,2-b]pyridazin-3-yl]phenol], the IC50 was 1810 nM.

`CC(C)[C@@H](CO)Nc1ccc2ncc(-c3ccc4c(c3)OCO4)n2n1` [229_0254_0068, (2S)-2-[[3-(1,3-benzodioxol-5-yl)imidazo[1,2-b]pyridazin-6-yl]amino]-3-methyl-butan-1-ol]: the IC50 came out at 1820 nM.

Still in this test, the particulars now being: secondary screen, re-synthesized and expanded compounds.
On to `COc1cc(-c2cnc3ccc(-c4ccncc4)nn23)ccc1O` [BF000817169, 2-methoxy-4-[6-(4-pyridyl)-imidazo[1,2-b]pyridazin-3-yl]phenol], for which the IC50 was 79.4 nM.
